Test results: US9956293B2, “Targeted therapeutics” (Madrigal Pharmaceuticals, Inc., priority 2014, dated 2018)

Tested on: HER2
Test: HER2 degradation assay with BT-474 cell line (Example 12, FACS)
Type: cell-based
Conditions: Homo sapiens
Description: HER2 Degradation Assay with BT-474 Cell Line
HER2 has emerged as a key target for anticancer drugs due to its intrinsic involvement in the phosphatidylinositol-3-kinase-Akt/protein kinase B (PI3K-Akt) and the mitogen-activated protein kinase (MAPK) pathways, both of which suppress apoptosis and promote tumor cell survival, gene transcription, angiogenesis, cellular proliferation, migration, mitosis, and differentiation. The degradation of HER2 is a measure of efficacy of anticancer therapeutics that target Hsp90. Accordingly, the SDC-TRAP molecules of the invention that comprise a binding moiety that binds Hsp90 were tested in the following HER2 degradation assay.
BT-474 cells (human breast cancer cell line ATCC HTB-20) were obtained from ATCC and seeded into 12-well tissue culture plates at 0.2×10^6/1.8 mL/well. […] Each test compound was titrated in 4-fold dilutions from 5 μM to 78 nM with DMSO and 200 μL of the titration was added to each well of the cell plate. The DMSO final concentration was 0.2%. Cells were incubated overnight at 37° C. in 5% CO2.
Media was decanted from the plate, cells were washed 1× in PBS. 400 μL trypsin (EDTA) per well was added, and the cells were incubated for 2 to 3 minutes. Cells were collected into FACS tubes containing 1 ml culture medium to neutralize the trypsin and were centrifuged for 5 minutes at 1200 rpm. Supernatant was decanted and the cells were resuspended in 5 μL FITC (anti HER2/nu)/200 μL staining buffer (1×PBS+1% FBS+0.05% Sodium Azide)/tube. Controls were […] IgG isotype control and staining buffer only. Tubes were incubated for 30 minutes in the dark at room temperature. 1 mL staining buffer was added to each tube and the tubes were centrifuged for 6 minutes at 1200 rpm. The supernatant was decanted and 300 μL staining buffer was added to each tube, which was store at 4° C. for FACS (cytometer) analysis. The cytometer readout was normalized and the potency of each compound is evaluated with IC50 calculated with XLfit™ software.

[1] = BT-474, SDC-TRAPs of the 41st table

| Compound | IC50 (BT-474 cells) [nM] | also measured |
| --- | --- | --- |
| CC(C)c1cc(-c2nnc(O)n2-c2ccc(CN3CCN(C(=O)ONC(=O)CCCCCCC(=O)Nc4ccccc4)CC3)cc2)c(O)cc1O [SDC-TRAP-0117, N1-((4-(4-(3-(2,4-dihydroxy-5-isopropylphenyl)-5-hydroxy-4H-1,2,4-triazol-4-yl)benzyl)piperazine-1-carbonyl)oxy)-N8-phenyloctanediamide] | 1100 |  |
| CCc1c2c(nc3ccc(OCCn4ccc5cc(-n6c(O)nnc6-c6cc(C(C)C)c(O)cc6O)ccc54)cc13)-c1cc3c(c(=O)n1C2)COC(=O)C3(O)CC (centres unmarked) [SDC-TRAP-0058, 9-(2-(5-(3-(2,4-dihydroxy-5-isopropylphenyl)-5-hydroxy-4H-1,2,4-triazol-4-yl)-1H-indol-1-yl)ethoxy)-4,11-diethyl-4-hydroxy-1H-pyrano[3′,4′:6,7]indolizino[1,2-b]quinoline-3,14(4H,12H)-dione] |  | IC50 (BT-474, SDC-TRAPs of the 43rd table): 2930 nM |
| CC(C)c1cc(-c2nnc(O)n2-c2ccc(CC(=O)N(C)CCCOC(=O)Nc3cccc4c3CN(C3CCC(=O)NC3=O)C4=O)cc2)c(O)cc1O (centres unmarked) [SDC-TRAP-0132, 3-(2-(4-(3-(2,4-dihydroxy-5-isopropylphenyl)-5-hydroxy-4H-1,2,4-triazol-4-yl)phenyl)-N-methylacetamido)propyl(2-(2,6-dioxopiperidin-3-yl)-1-oxoisoindolin-4-yl)carbamate] | > 5000 |  |
| CC(C)c1cc(-c2nnc(O)n2-c2ccc(N3CCN(C(=O)N4CCC(n5cc(-c6cnc(N)c(O[C@H](C)c7c(Cl)ccc(F)c7Cl)c6)cn5)CC4)CC3)cc2)c(O)cc1O [SDC-TRAP-0138, (R)-(4-(4-(6-amino-5-(1-(2,6-dichloro-3-fluorophenyl)ethoxy)pyridin-3-yl)-1H-pyrazol-1-yl)piperidin-1-yl)(4-(4-(3-(2,4-dihydroxy-5-isopropylphenyl)-5-hydroxy-4H-1,2,4-triazol-4-yl)phenyl)piperazin-1-yl)methanone] | 707 |  |
| CC(C)c1cc(-c2nnc(O)n2-c2ccc3c(ccn3CCC3CCN(C(=O)c4ccc(CCc5c[nH]c6nc(N)[nH]c(=O)c56)cc4)CC3)c2)c(O)cc1O [SDC-TRAP-0130, 2-amino-5-(4-(4-(2-(5-(3-(2,4-dihydroxy-5-isopropylphenyl)-5-hydroxy-4H-1,2,4-triazol-4-yl)-1H-indol-1-yl)ethyl)piperidine-1-carbonyl)phenethyl)-3H-pyrrolo[2,3-d]pyrimidin-4(7H)-one] |  | IC50 [1]: 1830 nM |
| CC(C)c1cc(-c2nnc(O)n2-c2ccc3c(c2)CN(C(=O)c2ccc(CCc4c[nH]c5nc(N)[nH]c(=O)c45)cc2)C3)c(O)cc1O [SDC-TRAP-0093, 2-amino-5-(4-(5-(3-(2,4-dihydroxy-5-isopropylphenyl)-5-hydroxy-4H-1,2,4-triazol-4-yl)isoindoline-2-carbonyl)phenethyl)-3H-pyrrolo[2,3-d]pyrimidin-4(7H)-one] |  | IC50 [1]: > 5000 nM |
| CCNC(=O)c1nnc(-c2cc(C(C)C)c(O)cc2O)n1-c1ccc(Oc2ccc(C(=O)N3CCC(COC(=O)Nc4cccc5c4CN(C4CCC(=O)NC4=O)C5=O)CC3)cc2)cc1 (centres unmarked) [SDC-TRAP-0125, (1-(4-(4-(3-(2,4-Dihydroxy-5-isopropylphenyl)-5-(ethylcarbamoyl)-4H-1,2,4-triazol-4-yl)phenoxy)benzoyl)piperidin-4-yl)methyl (2-(2,6-dioxopiperidin-3-yl)-1-oxoisoindolin-4-yl)carbamate] | 312 |  |
| CCNC(=O)c1nnc(-c2cc(C(C)C)c(O)cc2O)n1-c1ccc(C(=O)N(C)CC(=O)N2CCC(n3cc(-c4cnc(N)c(O[C@H](C)c5c(Cl)ccc(F)c5Cl)c4)cn3)CC2)cc1 [SDC-TRAP-0139, (R)-4-(4-((2-(4-(4-(6-amino-5-(1-(2,6-dichloro-3-fluorophenyl)ethoxy)pyridin-3-yl)-1H-pyrazol-1-yl)piperidin-1-yl)-2-oxoethyl)(methyl)carbamoyl)phenyl)-5-(2,4-dihydroxy-5-isopropylphenyl)-N-ethyl-4H-1,2,4-triazole-3-carboxamide] | 1000 to 2000 |  |
